Reference: article PMC7318243, “Computationally Empowered Workflow Identifies Novel Covalent Allosteric Binders for KRAS^G12C” (Chemmedchem, 2020)

Tests used:
[1] = molecular target: T1, KRAS^G12C (recombinant KRAS mutant G12C, C51S, C80L, C118S) (Homo sapiens, UniProt P01116, C118S/C51S/C80L/G12C); experiment: Covalent binding assay by mass spectrometry (intact mass, % covalent adduct); details: for MS assay [% binding] (KRAS^G12C bound fraction): 25 µM protein, 25 µM compound, room temperature, 2 h
T1 construct: made in house
Procedure: (§1) One of the most synthetically accessible compounds, 1,6‐naphthyridin‐5(6H)‐one (1), was prepared (Table 1; Scheme S1). Structurally close to 1, isoquinolin‐1(2H)‐one 2 derivatives were also considered for the exploration of structure‐activity relationships (SAR). To measure the proportion of inhibitor reacting with Cys12 of the KRAS^G12C mutant, the bound/unbound protein ratio was quantified by mass spectrometry (MS). Then, the inhibition potency of these compounds towards KRAS^G12C was evaluated in biochemical assays measuring the activation of GDP‐bound KRAS^G12C or KRAS^WT by SOS1.19 […]
3.4 Covalent binding assay by mass spectrometry
The percentage of covalent adduct formation at KRAS G12C was determined by intact mass determination. To this end, 25 µM recombinant KRAS mutant (G12C , C51S, C80L, C118S) was incubated with 25 µM compound (1% v/v DMSO final concentration) in 50 mM Tris, pH 8.0, 50 mM NaCl at room temperature for 2 h. Reaction mixture (20 µL) was acidified by addi tion of 4% v/v TFA (4 µL). LC-MS analysis was performed using a Waters SYNAPT G2 -S quadrupole time -of-flight mass spectrometer connected to a Waters nanoA CQUITY UPLC system. Samples were loaded onto a 2.1 × 5 mm MassPrep C4 guard column (Waters) and desalted with a short gradient (3 min) of increasing concentration of acetonitrile at a flow rate of 100 µL/min. Spectra were analyzed by using MassLynx v4.1 software and deconvoluted with the MaxEnt1 algorithm. Percent conversion was determined by the ratio of signal intensities of […] and KRASG12C + inhibitor. […]

[2] = molecular target: T2, KRAS^G12C (Homo sapiens, UniProt P01116, G12C); experiment: Biochemical assay: KRAS^G12C activation by SOS1CAT (HTRF, fluorescent GTP loading); details: for IC50: 180 min pre-incubation with KRAS before addition of SOS1
T2 construct: KRASG12C (aa 1–169, G12C) were produced for the biochemical assay; made in house
Procedure: as §1
(§2) 3.3 Biochemical activity assays
(§3) Measurement of (i) KRASG12C activation by SOS1CAT and (ii) wild-type KRAS activation by SOS1CAT was performed following the previously described protocol, [19] with a pre-incubation time of the test compound with KRAS proteins extended to 180 min before addi tion of SOS1.
(§4) This assay quantifies SOS1 CAT mediated loading of KRAS G12C–GDP with a fluorescent GTP analogue. Detection of successful loading was achieved by measuring resonance energy transfer from anti-GST-terbium (FRET donor) bound to GST -KRASG12C to the loaded fluorescent GTP analogue (FRET acceptor). The fluorescent GTP analogue EDA –GTP–DY-647P1 [2'/3'-O-(2-aminoethyl-carbamoyl)guanosine-5'-triphosphate labelled with DY-647P1 (Dyomics GmbH, Germany)] was synthesized by Jena Bioscience (Germany) a nd supplied as a 1 mM aqueous solution. A KRASG12C working solution was prepared in assay buffer [10 mM HEPES pH 7.4 (AppliChem), 150 mM NaCl (Sigma), 5 mM MgCl2 (Sigma), 1 mM DTT (Thermo Fisher), 0.05% BSA Fraction V pH 7.0 (ICN Biomedicals), 0.0025% (v/v) Igepal (Sigma)] containing 100 nM GST-KRASG12C and 2 nM anti-GST-terbium (Cisbio, France). A SOS1 CAT working solution was prepared in an assay buffer containing 20 nM SOS1CAT and 200 nM EDA–GTP–DY-647P1. An inhibitor control solution was prepared in an assay buffer containing 200 nM EDA–GTP–DY-647P1 without […]
SOS1CAT. All steps of the assay were performed at 20 °C. A volume of 2.5 µL of the KRASG12C working solution was added to all wells of the test plate using a Multidrop dispenser (Thermo LabSystems). After 180 min, 2.5 µL of the SOS1CAT working solution was added to all wells, except for the inhibitor control solution wells. After 30 min incubation, HTRF was measured. […]
(§5) SYNAPT G2-S quadrupole time-of-flight mass spectrometer connected to a Waters nanoAcquity UPLC system. Samples were loaded on a 2.1 x 5 mm mass prep C4 guard column (Waters) and desalted with a short grad ient (3 min) of increasing concentrations of acetonitrile at a flow rate of 100 µL/min. Spectra were analyzed by using MassLynx v4.1 software and deconvoluted with the MaxEnt1 algorithm. Percent of conversion was determined by the ratio of signal intensiti es of apo-KRAS and KRAS + inhibitor.

[3] = molecular target: T3, KRAS^WT (Homo sapiens, UniProt P01116); experiment: Biochemical assay: KRAS^WT activation by SOS1CAT (HTRF, fluorescent GTP loading); details: 180 min pre-incubation with KRAS before addition of SOS1
T3 construct: The proteins KRASWT (aa 1–169, wild type), SOS1CAT (aa 564–); made in house
Procedure: as §1, §2, §3, §4
SOS1CAT. All steps of the assay were performed at 20 °C. A volume of 2.5 µL of the KRASG12C working solution was added to all wells of the test plate using a Multidrop dispenser (Thermo LabSystems). After 180 min, 2.5 µL of the SOS1CAT working solution was added to all wells, except for the inhibitor control solution wells. After 30 min incubation, HTRF was measured.
In the KRASWT activation by SOS1cat assay, human SOS1CAT mediated loading of GST-KRASWT– GDP was quantified with a fluorescent GTP analogue. The assay was performed as described above for the KRASG12C activation. […]
as §5

Row | MS assay [% binding] (KRAS^G12C bound fraction) [1] | IC50 [2] | IC50 [3] | Ability to bind / react with Cys12 of KRAS^G12C, in words [1] | KRAS^G12C activity, in words [2] | Compound
1 | 34% | 5 µM | > 20 µM | – | – | C=CC(=O)N1CCC(c2cc3ccc(-c4ccc(F)cc4F)cc3c(=O)[nH]2)C1 (stereo not drawn) [Compound 3, 7-(2,4-Difluorophenyl)-3-[1-(prop-2-enoyl)pyrrolidin-3-yl]isoquinolin-1(2H)-one]
2 | 60% | 8 µM | > 20 µM | – | – | C=CC(=O)N1CCC(c2cc3ccc(-c4ccccc4CC)cc3c(=O)[nH]2)C1 (stereo not drawn) [Compound 5, 7-(2-Ethylphenyl)-3-[1-(prop-2-enoyl)pyrrolidin-3-yl]isoquinolin-1(2H)-one]
3 | 59% | 4.9 µM | > 20 µM | – | – | C=CC(=O)N1CCC(c2nc3ccc(-c4c(O)cccc4F)cc3c(=O)[nH]2)C1 (stereo not drawn) [Compound 11, 6-(2-Fluoro-6-hydroxyphenyl)-2-[1-(prop-2-enoyl)pyrrolidin-3-yl]quinazolin-4(3H)-one]
4 | 0% | – | – | unable to react with Cys12 of KRAS^G12C | – | C=CC(=O)N1CCC(c2cc3cc(O)c(-c4ncccc4F)cc3c(=O)[nH]2)C1 (stereo not drawn) [Compound 12]
5 | 20% | > 16 µM | > 20 µM | – | – | C=CC(=O)N1CCC(c2cc3ccc(-c4cccc5ncccc45)cc3c(=O)[nH]2)C1 (stereo not drawn) [Compound 6, 3-[1-(Prop-2-enoyl)pyrrolidin-3-yl]-7-(quinolin-5-yl)isoquinolin-1(2H)-one]
6 | 51% | 14.6 µM | > 20 µM | – | – | C=CC(=O)N1CCC(c2cc3cc(Cl)c(-c4c(O)cccc4F)cc3c(=O)[nH]2)C1 (stereo not drawn) [Compound 7, 6-Chloro-7-(2-fluoro-6-hydroxyphenyl)-3-[1-(prop-2-enoyl)pyrrolidin-3-yl]isoquinolin-1(2H)-one]
7 | 0% | > 20 µM | > 20 µM | – | inactive | C=CC(=O)N1CCCC(c2cc3ccc(-c4c(O)cccc4F)cc3c(=O)[nH]2)C1 (stereo not drawn) [Compound 9]
8 | 0% | > 20 µM | > 20 µM | – | – | C=CC(=O)N1CCC(c2cc3ccc(-c4cc(F)cc(F)c4)cc3c(=O)[nH]2)C1 (stereo not drawn) [Compound 4, 7-(3,5-Difluorophenyl)-3-[1-(prop-2-enoyl)pyrrolidin-3-yl]isoquinolin-1(2H)-one]
9 | 0% | > 20 µM | > 20 µM | – | inactive | C=CC(=O)N1CCC(c2cc3ccc(-c4c(O)cccc4F)cc3c(=O)[nH]2)CC1 [Compound 8]
10 | 11% | > 20 µM | > 20 µM | inability to bind KRAS^G12C | inactive | C=CC(=O)N1CCC(c2cc3ccc(-c4c(O)cccc4F)cc3c(=O)n2C)C1 (stereo not drawn) [Compound 10]
